Source: PMC8921294, “Inhibition of mitochondrial LonP1 protease by allosteric blockade of ATP binding and hydrolysis via CDDO and its derivatives” (The Journal of Biological Chemistry, 2022)

Biological target: T1, LonP1^R721G (Homo sapiens, UniProt P36776, R721G)
T1 construct: hexa-histidine (N); made in house; host or cells: Rosetta 2 E. coli
T1 sequence (P36776 68-959 R721G): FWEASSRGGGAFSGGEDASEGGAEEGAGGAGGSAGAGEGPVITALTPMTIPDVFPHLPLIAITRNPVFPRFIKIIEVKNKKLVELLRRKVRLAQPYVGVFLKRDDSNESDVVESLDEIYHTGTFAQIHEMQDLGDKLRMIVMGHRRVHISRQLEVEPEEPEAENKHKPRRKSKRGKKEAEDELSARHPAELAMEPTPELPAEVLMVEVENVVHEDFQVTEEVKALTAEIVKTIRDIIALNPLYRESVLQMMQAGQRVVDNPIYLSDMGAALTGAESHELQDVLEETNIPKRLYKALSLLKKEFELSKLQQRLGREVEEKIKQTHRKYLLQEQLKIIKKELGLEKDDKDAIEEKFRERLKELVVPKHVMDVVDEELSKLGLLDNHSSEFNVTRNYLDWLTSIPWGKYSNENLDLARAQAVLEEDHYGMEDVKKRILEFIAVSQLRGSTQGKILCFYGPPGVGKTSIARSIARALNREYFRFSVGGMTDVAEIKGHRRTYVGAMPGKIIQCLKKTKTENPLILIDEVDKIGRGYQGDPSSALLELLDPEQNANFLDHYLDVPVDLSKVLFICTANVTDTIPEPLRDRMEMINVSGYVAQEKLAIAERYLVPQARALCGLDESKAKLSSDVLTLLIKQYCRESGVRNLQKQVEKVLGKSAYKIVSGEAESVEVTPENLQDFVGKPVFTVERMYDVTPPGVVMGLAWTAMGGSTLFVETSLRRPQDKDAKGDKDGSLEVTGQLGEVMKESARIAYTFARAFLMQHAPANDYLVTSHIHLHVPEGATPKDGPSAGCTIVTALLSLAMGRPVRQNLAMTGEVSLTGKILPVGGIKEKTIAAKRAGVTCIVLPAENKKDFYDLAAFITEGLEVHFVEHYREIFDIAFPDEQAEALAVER
Assay: NADH-coupled ATPase assay, CODAS mutant LonP1^R721G
Type: biochemical
Conditions: compound 20 μM
Description: Figure 2 The ATPase activity of wild-type LonP1^WTis blocked by CDDO-Me and CDDO-anhydride by noncompetitive and competitive inhibition, respectively, whereas the CODAS mutant LonP1^R721GATPase is resistant to inhibition. ATPase activities were measured using an NADH-coupled ATPase assay. Wild type and mutant LonP1 proteins (400 nM) were pre-incubated with or without compound for 30 min at room temperature. A and E, LonP1^WT, and (H and I) comparison of LonP1^WT and LonP1^R721G. ATP was titrated and its hydrolysis was measured over 5 min (mean ± S.D., N ≥ 2). B and F, double-reciprocal Lineweaver–Burk plots (mean ± S.D., N ≥ 2). C and G, determination of Ki (mean ± S.D., N ≥ 2). D, determination of αKi (mean ± S.D., N ≥ 2). C, G and H. mean values obtained from linear regression data. CDDO, 2-cyano-3,12-dioxooleana-1,9(11)-dien-28-oic acid.
ATPase reactions (200 μl total) were performed in 96-well plates at room temperature. LonP1 (400 nM monomer) was preincubated with DMSO (1–2%) vehicle control or CDDO derivatives in buffer (50 mM HEPES-KOH pH 7.5, 5 mM magnesium acetate, 75 mM potassium acetate) for 30 to 45 min at room temperature or 30 °C. […] The change in NADH absorbance at 340 nm was monitored in Spectramax plate reader for 5 min to obtain reaction velocities. […]

| Inhibition of LonP1^R721G ATPase compared with LonP1^WT | Compound |
| --- | --- |
| showed resistance | COC(=O)[C@]12CCC(C)(C)C[C@H]1[C@H]1C(=O)C=C3[C@@]4(C)C=C(C#N)C(=O)C(C)(C)[C@@H]4CC[C@@]3(C)[C@]1(C)CC2 [CDDO-Me] |
| showed resistance | CC1(C)CC[C@]2(C(=O)OC(=O)[C@]34CCC(C)(C)C[C@H]3[C@H]3C(=O)C=C5[C@@]6(C)C=C(C#N)C(=O)C(C)(C)[C@@H]6CC[C@@]5(C)[C@]3(C)CC4)CC[C@]3(C)[C@H](C(=O)C=C4[C@@]5(C)C=C(C#N)C(=O)C(C)(C)[C@@H]5CC[C@]43C)[C@@H]2C1 [CDDO-anhydride] |
